Data on two compounds can be found in US20200138840A1, “PHARMACEUTICAL COMPOSITION AND TUMOR IMMUNOACTIVITY PROMOTER” (SENTAN Pharma inc., priority 2017, published 2020).

Molecules are shown by their SMILES.

A short description of data set [1]: Side effects in Example 1: body weight, meals, blood glucose, serological profiles, liver weight. Type of data set: in vivo, nude mice (BALBc-nu/nu). The conditions noted are these: for ALT / Fasting blood glucose / Neutral fat / Total cholesterol / Liver weight: day 21. The method, then:
Six-week-old nude mice (male, BALBc-nu/nu mice) were subcutaneously transplanted with 1×10^7 Huh-7 cells. In order to confirm the survival and growth of the transplanted cells, the measurement of tumor size was carried out using a pair of vernier calipers. At the time point when the tumors in the mice had reached a volume of from 100 to 150 mm^3, the mice were divided into the following six groups.
In each of the groups, the tumor volume and the body weight of the mice were measured every 3 days from the start of administration. At the time points of 7 days, 14 days and 21 days after the start of administration, the average amount of meals taken per day was calculated from the amount of meals taken in the previous week. […] Further, 21 days after the start of administration, the tumors were observed, blood was collected from the mice in accordance with a conventional method, and the livers were removed from the mice. The serological profiles of the collected blood samples were measured using SPOTCHEM (trademark) EZ SP-4430 system (manufactured by Arkray, Inc.). In addition, the weight of the removed livers was measured.

Another data set deals with CD3 positive T cells. Briefly: Immunostaining of liver tumor tissue with CD3 antibody (Example 10). The data set is classed as in vivo, STAM mice (C57BL6/N). The conditions noted are these: 2DG 100 mg/kg/day i.p. every day; high dose 2DG-PLGA 200 μL of 100 mg/mL once a week. The protocol:
Further, the immunostaining of the liver tumor tissue was carried out using a rabbit monoclonal CD3 antibody (manufactured by GeneTex, Inc.).

The test system of another data set is Hepatoma cell line Huh-7. Briefly: Anticancer effect of 2DG in nude mice subcutaneously transplanted with hepatoma cell line (Example 1). The conditions noted are these: for tumor volume over time (FIG. 2): combination with sorafenib 5 mg/kg/day orally. Type of data set: in vivo, nude mice (BALBc-nu/nu). The method, then:
The Hepatoma cell line Huh-7 (obtained from Cell Resource Center for Biomedical Research, Cell Bank, Institute of Development, Aging and Cancer, National University Corporation Tohoku University) to be transplanted to the mice was cultured at 37° C. using a 5% CO2 incubator. Dulbecco's modified Eagle's medium (DMEM) containing 10% fetal bovine serum was used as the medium for culturing Huh-7 cells. Six-week-old nude mice (male, BALBc-nu/nu mice) were subcutaneously transplanted with 1×10^7 Huh-7 cells. In order to confirm the survival and growth of the transplanted cells, the measurement of tumor size was carried out using a pair of vernier calipers. […] (a) Control group: 200 μL of PBS was administered intraperitoneally every day. […] At the time points of 7 days, 14 days and 21 days after the start of administration, the average amount of meals taken per day was calculated from the amount of meals taken in the previous week. […] Further, 21 days after the start of administration, the tumors were observed, blood was collected from the mice in accordance with a conventional method, and the livers were removed from the mice. The serological profiles of the collected blood samples were measured using SPOTCHEM (trademark) EZ SP-4430 system (manufactured by Arkray, Inc.). In addition, the weight of the removed livers was measured.

Data set [2] in a line: Side effects in Example 3: body weight, meals, blood glucose, serological profiles, liver weight. The data set is classed as in vivo, nude mice. The conditions noted are these: day 21. The method, then:
Nude mice subcutaneously transplanted with Huh-7 cells, prepared in the same manner as in Example 1, were divided in the following six groups.
In each of the groups, the tumor volume and the body weight of the mice were measured in the same manner as in Example 1, and the average amount of meals taken per day was calculated.

The conditions of data set [3]: cited from earlier work.
Setting [4] is: 2DG 100 mg/kg/day into jugular vein once a week.
The mark [5] stands for this setting: 2DG 100 mg/kg/day intraperitoneally every day.
[6] abbreviates: high dose 2DG 1,000 mg/kg/day i.p. (alone or with sorafenib 5 mg/kg/day orally).
Where [7] appears, read: low dose 2DG 100 mg/kg/day i.p. (alone or with sorafenib 5 mg/kg/day orally).
The mark [8] stands for this setting: high dose 2DG 1,000 mg/kg/day i.p., day 14 after start.

Regarding `CNC(=O)c1cc(Oc2ccc(NC(=O)Nc3ccc(Cl)c(C(F)(F)F)c3)cc2)ccn1` [Sorafenib, sorafenib], in data set [1] (sorafenib 5 mg/kg/day orally), the ALT turned out to be 35.0 ± 10.3 mg/dL, the Fasting blood glucose turned out to be 84.8 ± 11.8 mg/dL, the Neutral fat is given as 95.2 ± 35.7 mg/dL and the Total cholesterol came out at 120.4 ± 17.8 mg/dL.

As for `O=CC[C@@H](O)[C@H](O)[C@H](O)CO` [2DG, 2-Deoxy-D-glucose], the “infiltration of T cells into the interior of tumors (FIG. 29)” value in the data set on CD3 positive T cells is given as “increased infiltration of T cells”. In addition, in the data set with Hepatoma cell line Huh-7 (21 days after start, 2DG i.p. every day, sorafenib 5 mg/kg/day orally), the “size of the tumors (appearance, FIG. 1)” value is reported as “decreased the size of the tumors”. Further, the “tumor volume over time (FIG. 2)” value in the data set on Hepatoma cell line Huh-7 (high dose 2DG 1,000 mg/kg/day i.p. every day) is on record as “significant decrease in the tumor volume in a dose-dependent manner”. Moreover, the “tumor volume over time (FIG. 2)” value in the data set on Hepatoma cell line Huh-7 (low dose 2DG 100 mg/kg/day i.p. every day) is reported as “significant decrease in the tumor volume in a dose-dependent manner”. In data set [2] (setting [4]), the ALT was found to be 49 ± 20.9 U/L, the Fasting blood glucose was determined as 73.8 ± 14.0 mg/dL, the Liver weight is listed as 1.10 ± 0.19 g and the Neutral fat is listed as 67.6 ± 28.5 mg/dL. Further, the Total cholesterol in data set [2] (setting [4]) is recorded as 115.4 ± 10.1 mg/dL. In data set [2] (setting [5]), the ALT worked out at 38.6 ± 23.5 U/L, the Fasting blood glucose stood at 83.2 ± 38.2 mg/dL, the Liver weight stood at 1.35 ± 0.19 g and the Total cholesterol turned out to be 113.8 ± 25.3 mg/dL. In addition, the side-effects result in data set [3] (dose of from 63 to 88 mg/kg) is “severe side-effects such as gastrointestinal bleeding, long QT syndrome and hyperglycemia were observed”. Further, the tolerated dose in data set [3] (phase 1 clinical trial, oral administration, combined with docetaxel) was at most 63 mg/kg. In data set [1] (setting [6]), this compound gave a Fasting blood glucose of 77.2 ± 28.0 mg/dL, a Liver weight of 1.10 ± 0.1 g and a Total cholesterol of 110.8 ± 23.6 mg/dL. In data set [1] (setting [7]), this compound had an ALT of 34.8 ± 16.2 mg/dL, a Fasting blood glucose of 79.0 ± 10.9 mg/dL, a Liver weight of 1.21 ± 0.1 g and a Neutral fat of 103.2 ± 24.7 mg/dL. The same compound had a Total cholesterol in data set [1] (setting [7]) of 122.6 ± 19.8 mg/dL. Further, in data set [1] (setting [8]), the “blood glucose level after administration (FIG. 5)” value is given as “marked increase in the blood glucose level” and the consciousness after administration entry was “disturbance of consciousness was observed”.
